Columns and labels:
[1] = Gravimetric vapour sorption (GVS) analysis, hygroscopicity; assay type: physicochemical; conditions: GVS at 25° C.; for Hygroscopicity: mass change: between 40% and 80% relative humidity; for Hygroscopicity: sorption of moisture mass/mass: humidity program 40-0-95-0-95-40% RH, maximum sorption with hysteresis
Procedure: Gravimetric Vapour Sorption (GVS) Analysis
The sample was allowed to equilibrate at 40% RH before starting a pre-defined humidity program (40-0-95-0-95-40% RH, steps of 5% ΔRH and with a maximal equilibration time of 24 hours per step were applied. About 20 to 30 mg of each sample was used. The hygroscopic classification is done according to the European Pharmacopeia Technical Guide (1999, page 86), e.g., slightly hygroscopic: increase in mass is less than 2% and equal to or greater than 0.2% mass/mass; hygroscopic: increase in mass is less than 15% and equal to or greater than 2% mass/mass. The mass change between 40% relative humidity and 80% relative humidity in the first adsorption scan is considered.

[2] = Measurement of brain and systemic concentration after oral administration; assay type: in vivo; conditions: 3 h after oral administration (100 mg/kg), n=3, male wistar rats
Procedure: Measurement of Brain and Systemic Concentration after Oral Administration:
Samples are collected in the same animal at the same time point (+/−5 min). Blood is sampled from the vena cava caudalis into containers with EDTA as anticoagulant and centrifuged to yield plasma. Brain is sampled after cardiac perfusion of 10 mL NaCl 0.9% and homogenized into one volume of cold phosphate buffer (pH 7.4). All samples are extracted with MeOH and analyzed by LC-MS/MS. Concentrations are determined with the help of calibration curves.

Wistar rats = experiment: Sedative effects: EEG, EMG and behavioural indices of alertness recorded by radiotelemetry; assay type: in vivo; conditions: 30 mg/kg po, effects analyzed over 6 hours
Procedure: Sedative Effects: EEG, EMG and Behavioural Indices of Alertness Recorded by Radiotelemetry In Vivo in Wistar Rats.
Electroencephalography (EEG) and Electromyography (EMG) signals were measured by telemetry using TL11M2-F20-EET miniature radiotelemetric implants (Data Science Int.) with two pairs of differential leads.
Surgical implantation was performed under general anesthesia with Ketamin/Xylazin, for cranial placement of one differential pair of EEG electrodes and one pair of EMG leads inserted in either side of the muscles of the neck. After surgery, rats recovered in a thermoregulated chamber and received analgesic treatment with subcutaneous buprenorphine twice a day for 2 d. They were then housed individually and allowed to recover for a minimum of 2 weeks. Thereafter, rats—in their home cage—were placed in a ventilated sound-attenuating box, on a 12-h light/12-h dark cycle, for acclimatization before continuous EEG/EMG recordings started. The telemetric technology that we used in this study allows accurate and stress-free acquisition of biosignals in rats placed in their familiar home cage environment, with no recording leads restricting their movements. Variables analyzed included four different stages of vigilance and sleep, spontaneous activity in the home cage and body temperature. Sleep and wake stages were evaluated using a rodent scoring software (Somnologica Science) directly processing electrical biosignals on 10 s contiguous epochs. The scoring is based on frequency estimation for EEG and amplitude discrimination for EMG and locomotor activity. Using these measurements, the software determines the probability that all components within each epoch best represent active waking (AW), quiet waking (QW), non-REM-sleep (NREM) or REM-sleep (REM). The percentage of total time spent in AW, QW, NREM- and REM-sleep was calculated per 12 h light or dark period. The latency to the onset of the first significant NREM- and REM-sleep episodes and the frequency and duration of those episodes were also calculated. […] All variables were subsequently recorded for 12 h following administration of the orexin receptor antagonist.

COc1ccc(-n2nccn2)c(C(=O)N2CCC[C@@]2(C)c2nc3c(C)c(Cl)ccc3[nH]2)c1 [COMPOUND as free base in amorphous form, [(S)-2-(5-chloro-4-methyl-1H-benzoimidazol-2-yl)-2-methyl-pyrrolidin-1-yl]-(5-methoxy-2-[1,2,3]triazol-2-yl-phenyl)-methanone]
Hygroscopicity: mass change ([1]; first adsorption scan): about 0.7%), Hysteresis and sorption | Hygroscopicity: sorption of moisture mass/mass [1]: of up to 2.7% moisture mass/mass.

COc1ccc(-n2nccn2)c(C(=O)N2CCC[C@@]2(C)c2nc3c(C)c(Cl)ccc3[nH]2)c1 [COMPOUND in crystalline form 1, (S)-(2-(6-chloro-7-methyl-1H-benzo[d]imidazol-2-yl)-2-methylpyrrolidin-1-yl)(5-methoxy-2-(2H-1,2,3-triazol-2-yl)phenyl)methanone]
Hygroscopicity (hygroscopic classification) ([1]; European Pharmacopeia Technical Guide classification, 40% to 80% RH, first adsorption scan): Non hygroscopic (mass change smaller | Hygroscopicity: mass change ([1]; first adsorption scan): then 0.1%)

COc1ccc(-n2nccn2)c(C(=O)N2CCC[C@@]2(C)c2nc3c(C)c(Cl)ccc3[nH]2)c1 [COMPOUND in crystalline form 2, (S)-(2-(6-chloro-7-methyl-1H-benzo[d]imidazol-2-yl)-2-methylpyrrolidin-1-yl)(5-methoxy-2-(2H-1,2,3-triazol-2-yl)phenyl)methanone]
Hygroscopicity: mass change ([1]; first adsorption scan): about 0.7%) | Hygroscopicity: sorption of moisture mass/mass [1]: ≤ 1.1% moisture mass/mass.

COc1ccc(-n2nccn2)c(C(=O)N2CCC[C@@]2(C)c2nc3c(C)c(Cl)ccc3[nH]2)c1 [COMPOUND, (S)-(2-(6-chloro-7-methyl-1H-benzo[d]imidazol-2-yl)-2-methylpyrrolidin-1-yl)(5-methoxy-2-(2H-1,2,3-triazol-2-yl)phenyl)methanone]
concentration in brain [B] [2]: 1808 ng/g | concentration in plasma [P] [2]: 1280 ng/mL | effect on NREM sleep compared to vehicle controls (Wistar rats): +27% | effect on REM sleep compared to vehicle controls (Wistar rats): +53% | effect on active wake compared to vehicle controls (Wistar rats): −24% | effect on home cage activity compared to vehicle controls (Wistar rats): −31%
